The series can be described thus: solvent given as SMILES.

Where “and” joins values, the source holds several entries; their conditions need not be identical. Identical values can stand only once.

For the molecule `COc1ccc(N(c2ccc(OC)cc2)c2ccc(-c3ccc(C=C(C#N)C#N)o3)cc2)cc1`, the absorption maximum (in ClC(Cl)Cl) was 524 nm.

Molecule `[O-][n+]1c(/C=C/c2ccc(/C=C/c3ccccc3)cc2)nc(N2CCOCC2)c2c1CCCC2` registered an absorption maximum (in ClCCl) of 406 nm.

With `CNc1cccc2c1C(=O)c1ccccc1-2`, the absorption maximum (in C1CCCCC1) amounted to 432 nm, the absorption maximum (in CC#N) worked out at 445 nm, the absorption maximum (in CCO) came to 448 nm and the absorption maximum (in c1ccccc1) came to 445 nm.

Turning to `F[B-]1(F)n2c(nc(-c3ccccc3)c2-c2ccccc2)-c2cccc[n+]21`, the absorption maximum was 429 nm (in C1CCCCC1); 404 nm (in C1CCOC1); 387 nm (in C1COCCO1); 393 nm and 363 nm (in CC#N); 428 nm and 427 nm (in CCCCCC); 391 nm (in CO). In addition, the absorption maximum is, setting by setting: (in ClC(Cl)Cl) 414 nm and 388 nm; (in ClCCl) 408 nm.

Turning to `N#C/C(=C/Nc1ccc(C#N)cc1)c1nc(-c2ccccc2)cs1`, the absorption maximum runs as follows: (in CC#N) 372 nm; (in CCO) 373 nm; (in CN(C)C=O) 376 nm; (in Cc1ccccc1) 377 nm; (in ClCCl) 375 nm.

`CC[N+]1(CC)CN2C(=N1)C(C(=O)O)=Cc1ccc(Cl)cc12`: the absorption maximum (in O) is listed as 367 nm.

Where the note is “in ClCCl”, `CCCCN1C(=O)C2=C(c3ccc(-c4ccccc4)cc3)NC(=O)C2=C1c1ccc(-c2ccccc2)cc1` displayed an absorption maximum of 485 nm.

As for `CCCCCCN(CCCCCC)c1ccc(C#Cc2ccc(C#N)cc2)cc1`, the absorption maximum runs as follows: (in CC#N) 379 nm; (in CO) 378 nm; (in ClCCl) 385 nm.

As to `Clc1nnc(O/N=C/c2ccc(N(c3ccccc3)c3ccccc3)cc2)nn1`, the absorption maximum (in ClCCl) worked out at 518 nm.

For the molecule `O=c1oc2c(ccc3ccccc32)nc1-c1ccccc1`, the absorption maximum is on record as 396 nm (in CC#N), 398 nm (in CCCCCC), 396 nm (in CO) and 396 nm (in c1ccccc1).

`CC(C)(C)c1ccc2c3ccccc3c3cncnc3c2c1` displayed an absorption maximum (in ClCCl) of 348 nm.

For the molecule `CC1(C)c2ccccc2N(c2ccc(-c3ccc4c(c3)C(=O)c3ccc(-c5ccc(N6c7ccccc7C(C)(C)c7ccccc76)cc5)cc3C4=O)cc2)c2ccccc21`, the absorption maximum (in Cc1ccccc1) was 446 nm.

`c1cc2ccc3cccc4ccc(c1)c2c34` had an absorption maximum (in C1CCCCC1) of 334 nm; an absorption maximum (in CC#N) of 335 nm; an absorption maximum (in CCCCCC) of 330 nm; an absorption maximum (in CCO) of 334 nm; an absorption maximum (in CCOC(C)=O) of 335 nm; an absorption maximum (in CO) of 330 nm. Moreover, the absorption maximum (in Cc1ccccc1) was 362 nm, the absorption maximum (in ClC(Cl)Cl) was 337 nm and the absorption maximum (in ClCCl) amounted to 333 nm.

Molecule `Nc1cc(N)cc(-c2nc3ccccc3s2)c1` displayed an absorption maximum (in C1CCCCC1) of 360 nm; an absorption maximum (in C1COCCO1) of 360 nm; an absorption maximum (in CC#N) of 360 nm; an absorption maximum (in CC(C)O) of 360 nm; an absorption maximum (in CCOC(C)=O) of 360 nm; an absorption maximum (in CCOCC) of 360 nm. Besides, the absorption maximum reads like this: (in CO) 360 nm; (in O) 360 nm.

The molecule `F[B-]1(F)n2c(cc3oc4ccccc4c32)C(c2ccc(I)cc2)=C2C=c3oc4ccccc4c3=[N+]21` gave an absorption maximum (in ClC(Cl)Cl) of 637 nm.

`COc1ccc(-c2cc(-c3ccc(OC)cc3)c3c(N)nc(N4CCCC4)c(C#N)c3n2)cc1`: the absorption maximum was 416 nm (in CC#N); 416 nm (in CC(C)=O); 412 nm (in CC(C)O); 412 nm (in CO); 420 nm (in ClC(Cl)Cl); 418 nm (in ClCCl). For the same molecule, the absorption maximum (in c1ccccc1) is 420 nm.

Turning to `c1cc2ccc3ccc4cc3c2cc1c1ccc2ccc3ccc(cc3c2c1)c1ccc2ccc3ccc4cc3c2c1`, the absorption maximum (in Cc1ccccc1) turned out to be 375 nm.

In turn, `CC(C)[Si](C#Cc1c2ccccc2c(C#Cc2c3ccccc3c(C#Cc3c4ccccc4c(C#Cc4c5ccccc5c(C#C[Si](C(C)C)(C(C)C)C(C)C)c5ccccc45)c4ccccc34)c3ccccc23)c2ccccc12)(C(C)C)C(C)C` yielded an absorption maximum (in Cc1ccccc1) of 582 nm.

Under “in ClCCl”, `COc1ccc(C2=Nc3cccc4[n+]3[B-](F)(O2)OC(c2ccc(OC)cc2)=N4)cc1` had an absorption maximum of 399 nm.

Take `CCCCN1C(=O)c2cccc3c(C#CC#Cc4ccc5c6c(cccc46)C(=O)N(CCCC)C5=O)ccc(c23)C1=O`: the absorption maximum (in ClCCl) was determined as 372 nm.

In the case of `Nc1cccc2cccc(N)c12`, the absorption maximum is, setting by setting: (in CC#N) 349 nm; (in CO) 334 nm; (in CS(C)=O) 354 nm; (in Cc1ccccc1) 334 nm.

With `CCC1(CC)c2cc(/C=C/c3ccc(/C=C/c4ccc5c(c4)C(CC)(CC)c4cc(N6c7ccccc7Sc7ccccc76)ccc4-5)cc3)ccc2-c2ccc(N3c4ccccc4Sc4ccccc43)cc21`, the absorption maximum (in C1CCOC1) is recorded as 444.73 nm; the absorption maximum (in CC#N) is listed as 441.5 nm; the absorption maximum (in CCCCCC) came out at 440.65 nm; the absorption maximum (in Cc1ccccc1) is reported as 446.43 nm; the absorption maximum (in ClCCl) turned out to be 418 nm.

Turning to `CCC1=C(C)C(=O)n2c1cc1c(c(C)c(C(=O)OCC(C)C)n1CC(C)C)c2=O`, the absorption maximum was 397 nm (in C1CCCCC1); 397 nm (in CO); 397 nm (in CS(C)=O); 399 nm (in ClC(Cl)Cl); 397 nm (in c1ccccc1).

Consider `CC1(C)C(/C=C2\C(=O)C(/C=C3\Nc4ccccc4C3(C)C)=C2[O-])=[NH+]c2ccccc21`, for which the absorption maximum (in ClC(Cl)Cl) is on record as 654 nm.

`Cc1ccc(-c2cnc3nn4ccccc4c3c2)cc1` returned an absorption maximum (in C1CCOC1) of 386 nm.

Take `C(=C\c1nc(/C=C/c2ccc(-n3c4ccccc4c4ccccc43)cc2)nc(/C=C/c2ccc(-n3c4ccccc4c4ccccc43)cc2)n1)/c1ccc(-n2c3ccccc3c3ccccc32)cc1`: the absorption maximum reads like this: (in C1CCOC1) 381 nm; (in CC#N) 376 nm; (in Cc1ccccc1) 389 nm; (in ClCCl) 383 nm.

With `O=S(=O)(c1ccc(-c2ccc(-c3nc4c5ccccc5c5ccccc5c4n3-c3ccccc3)cc2)cc1)c1ccc(-c2ccc(-c3nc4c5ccccc5c5ccccc5c4n3-c3ccccc3)cc2)cc1`, the absorption maximum runs as follows: (in C1CCOC1) 368 nm; (in CC#N) 368 nm; (in CC(C)=O) 368 nm; (in CC(C)OC(C)C) 368 nm; (in CCCCCC) 368 nm; (in CCCCOCCCC) 368 nm. Moreover, the absorption maximum reads like this: (in CCN(CC)CC) 368 nm; (in CCOC(C)=O) 368 nm; (in CCOCC) 368 nm; (in CN(C)C=O) 368 nm; (in ClC(Cl)Cl) 368 nm; (in ClCCl) 368 nm.

Consider `CCOC(=O)c1c(-c2cc3ccccc3oc2=O)nn(-c2cccc(F)c2)c1C(=O)OCC`, for which, under “in ClCCl”, the absorption maximum is given as 324 nm.

On to `NC(=O)CC[C@H](/[NH+]=C\C=C1\C=C(C(=O)O)N[C@H](C(=O)O)C1)C(=O)O`, for which the absorption maximum reads like this: (in CCO) 474 nm; (in CO) 471 nm; (in O) 475 nm; (in OCC(F)(F)F) 473 nm; (in OCCO) 478 nm.

On to `COc1ccc(N(c2ccc(C=C(c3ccccc3)c3ccccc3)cc2)c2ccc(OC)cc2)cc1`, for which the absorption maximum (in Cc1ccccc1) was determined as 376 nm.

In the case of `CCC1(CC)c2cc(-c3ccc(C(C)(C)C)cc3)ccc2-c2ccc(-c3ccc4c(c3)C(CC)(CC)c3cc(-c5ccc6c(c5)C(CC)(CC)c5cc(-c7ccc(C(C)(C)C)cc7)ccc5-6)ccc3-4)cc21`, the absorption maximum (in CO) was found to be 360.54 nm.

Consider `COc1c(C)c2c(c(C)c1Cl)Oc1c(C=O)c(O)c(Cl)c(C)c1C(=O)O2`, for which, where the note is “in ClC(Cl)Cl”, the absorption maximum came to 342 nm.

Where the note is “in Cc1ccccc1”, `N#Cc1cccc(C#N)c1-c1ccc(N2c3ccccc3C3(c4ccccc42)c2ccccc2N(c2ccc(-c4c(C#N)cccc4C#N)cc2)c2ccccc23)cc1` showed an absorption maximum of 371.03 nm.

`Cc1ccc(C#Cc2ccc3ccc4cccc5ccc2c3c45)cc1`: the absorption maximum reads like this: (in CCCCCC) 362 nm; (in CCO) 362 nm; (in CCOC(C)=O) 362 nm; (in ClCCl) 365 nm.

With `Cc1cc(=O)oc2cc3c4ccc(C(C)(C)C)cc4c4cc(C(C)(C)C)ccc4c3cc12`, the absorption maximum (in ClC(Cl)Cl) was determined as 385 nm.

Where the note is “in O”, `NNC(=O)N1C(=O)c2cc(S(=O)(=O)[O-])cc3c(N)c(S(=O)(=O)[O-])cc(c23)C1=O` yielded an absorption maximum of 458 nm.

Take `C#CCOc1ccc(/C=C/C2=[N+]3C(=C(c4ccc(N(C)CC)cc4)c4c(C)cc(C)n4[B-]3(F)F)C(C)=C2)cc1`: for the setting “in CO”, the absorption maximum came out at 569 nm.

For `Cc1cc(C)c(B(c2ccc(-c3cc4ccc5cccc6ccc(c3)c4c56)cc2)c2c(C)cc(C)cc2C)c(C)c1`, for the setting “in Cc1ccccc1”, the absorption maximum worked out at 378 nm.

Regarding `CCCCCCn1c(=O)c2c3oc4ccccc4oc3c3c(=O)n(CCCCCC)c(=O)c3c2c1=O`, the absorption maximum (in ClCCl) is 395 nm.

For the molecule `c1ccc2c(c1)Oc1ccccc1N2c1ccc2c(c1)c1ccccc1n1c3ccccc3nc21`, for the setting “in Cc1ccccc1”, the absorption maximum was 376 nm.

Take `CC(C)(C)c1ccc2c(c1)c1cc(C(C)(C)C)ccc1n2-c1ccc(-c2nc(-c3ccc(-n4c5ccc(C(C)(C)C)cc5c5cc(C(C)(C)C)ccc54)cc3)nc(-c3ccc(P(=O)(c4ccccc4)c4ccccc4)cc3)n2)cc1`: the absorption maximum reads like this: (in C1CCOC1) 386.93 nm; (in CC#N) 380.02 nm; (in CC(C)=O) 380.02 nm; (in CN(C)C=O) 384.45 nm; (in Cc1ccccc1) 393.2 nm; (in ClC(Cl)Cl) 430.07 nm. This molecule yielded an absorption maximum (in ClCCl) of 382.72 nm.

For the origin of these results see the Deep4Chem optical property database.
